In PubChem BioAssay AID1645868 (Buhrlage Lab, Dana-Farber Cancer Institute and Novartis …, 2021):
The source made the active and inactive calls.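 How the source made its calls: active means maximal percent inhibition of the deubiquitinase OTUD3 of at least 30% across the tested doses; inactive means the rest.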

Biological target: OTU domain-containing protein 3 (Homo sapiens) (UniProt Q5T2D3)
Experiment: Validation of screening hits, potency titration, in vitro enzymatic, OTU domain-containing protein 3 DUB inhibitors (AID 1645868)
Settings: purified OTUD3, ubiquitin-rhodamine cleavage fluorescence, 2 h

OTU domain-containing protein 3 (Homo sapiens), sequence (Q5T2D3 whole entry, looked up, the tested form may be a part): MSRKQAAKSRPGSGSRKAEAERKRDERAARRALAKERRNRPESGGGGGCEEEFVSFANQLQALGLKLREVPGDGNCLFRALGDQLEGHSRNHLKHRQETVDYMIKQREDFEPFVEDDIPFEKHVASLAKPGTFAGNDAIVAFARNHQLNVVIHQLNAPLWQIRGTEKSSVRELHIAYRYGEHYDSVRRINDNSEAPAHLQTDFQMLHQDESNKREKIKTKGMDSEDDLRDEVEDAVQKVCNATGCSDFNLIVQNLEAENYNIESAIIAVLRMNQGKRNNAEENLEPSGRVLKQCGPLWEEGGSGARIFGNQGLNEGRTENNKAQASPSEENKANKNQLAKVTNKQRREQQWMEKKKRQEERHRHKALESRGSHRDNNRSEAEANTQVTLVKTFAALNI

| Structure (SMILES) | IC50 |
| --- | --- |
| COc1ccc(C(=O)CSc2ccc3nnc(CCNC(=O)c4ccc(OC)cc4)n3n2)cc1 | > 50 µM (inactive) |
| N#Cc1ccc(NC(=O)c2ccc(S(=O)(=O)N3CCCCC3)cc2)cc1 | > 50 µM (inactive) |
| O=C(Nc1ccc(Br)cn1)c1nc2ccccc2nc1N1CCCCC1 | > 50 µM (inactive) |
| O=C(CSc1ccc2nnc(-c3ccccc3)n2n1)N1CCCc2ccccc21 | 15 µM |
| Cc1cc(NC(=O)c2nnn(-c3ccccc3Cl)c2C)no1 | > 50 µM (inactive) |
| CCCCCC(O)c1c(O)cc2c(c1O)C(=O)c1c(O)cc(O)cc1C2=O (stereo unspecified) | > 50 µM (inactive) |
| CC(=O)Nc1ccc(-n2cnc(C(=O)NC(C)c3ccccc3)c2)nc1 (stereo unspecified) | > 50 µM (inactive) |
| O=C(NCc1ccc2c(c1)OCO2)c1nc(-c2ccccc2)n(-c2ccccc2)n1 | > 50 µM (inactive) |
| Cc1ccc2c(Nc3ccc(CC(=O)O)cc3)c(C(=O)N3CCCC3)cnc2n1 | > 50 µM (inactive) |
| Cc1ccc2cc3c(nc2n1)CCN(Cc1ccc(F)cc1)C3 | > 50 µM (inactive) |
| CCn1cc(-c2nc(-c3ccccc3)no2)c(=O)c2cc(F)ccc21 | 18 µM |
| COc1cccc(NC(=O)CSc2nnc(-c3cc4cccc(OC)c4o3)n2C)c1 | 35.9 µM |
| Cn1c(CN2CCCCCC2)nc2cc(NC(=O)c3ccccc3)ccc21 | > 50 µM (inactive) |
| Cn1c(=O)c2c(nc3n(-c4ccccc4F)c(-c4ccccc4)cn23)n(C)c1=O | > 50 µM (inactive) |
| Cc1ccc(Cn2nnc(-c3noc(-c4ccc[nH]4)n3)c2C)cc1 | > 50 µM (inactive) |
| COC(=O)c1ccc(Cn2cnc3ccc(Br)cc3c2=O)o1 | > 50 µM (inactive) |
| CC1Cc2ccccc2N1C(=O)Cn1c(=O)cc(O)c2ccccc21 (stereo unspecified) | > 50 µM (inactive) |
| O=C(Cc1noc2ccccc12)NCC(=O)Nc1ccc(Cl)cc1 | 22.2 µM |
| Cc1ccc2c(c1)c(=O)c(C(=O)c1ccccc1)cn2CC(=O)Nc1ccccc1 | 31.5 µM |
| CCOC(=O)c1cc2c(ccn2C)n1CC(=O)N1CCc2ccccc2C1 | > 50 µM (inactive) |
| COc1cc(NC(=O)c2cc(CN3CCOCC3)on2)cc(OC)c1 | > 50 µM (inactive) |
| NS(=O)(=O)c1cccc(NC(=O)CN2CCCc3ccccc32)c1 | > 50 µM (inactive) |
| COc1cc(COc2ccc3c(C)c(CC(=O)N4CC[C@@]5(O)CCCC[C@H]5C4)c(=O)oc3c2C)cc(OC)c1OC | > 50 µM (inactive) |
| CC(C)NC(=O)[C@H](Cc1ccccc1)NC(=O)N1CCn2c1nc1ccccc12 | > 50 µM (inactive) |

| Structure (SMILES) | IC50 |
| --- | --- |
| CCOc1ccc(CCNC(=O)c2cccc3c2C(=O)N(CCOC)C3)cc1OCC | > 50 µM (inactive) |
| O=C(Cn1c(=O)n(CCCC(=O)N2CC=C(c3ccccc3)CC2)c(=O)c2ccccc21)NCCC1=CCCCC1 | > 50 µM (inactive) |
| CN1CCN(c2ncnc3c2oc2ccc(Cl)cc23)CC1 | > 50 µM (inactive) |
| COc1cccc(-c2cc(=O)[nH]c(Nc3nc(C)c4ccccc4n3)n2)c1 | > 50 µM (inactive) |
| Cc1nc(-c2noc3ccc(C(=O)Nc4cccnc4)cc23)cs1 | 42.4 µM |
| COc1cccc(/C=C/c2nc(C#N)c(N3CCN(C(=O)c4cccs4)CC3)o2)c1 | > 50 µM (inactive) |
| Cc1cccc(-c2nc3n(CC(=O)Nc4ccc(Cl)cc4)c(C)cc(=O)n3n2)c1 | 2 µM |
| c1ccc(CCN2CCc3nc4cccnc4cc3C2)nc1 | > 50 µM (inactive) |
| CSc1cccc(NC(=O)CCc2ccc3nc(NC(C)=O)sc3c2)c1 | > 50 µM (inactive) |
| COCC(C)Nc1ncc(-c2cnccn2)c(-c2ccc(C)s2)n1 (stereo unspecified) | > 50 µM (inactive) |
| COc1ccc(-c2cc(-c3ccc(O)cc3)nc(N)c2C#N)cc1OC | > 50 µM (inactive) |
| Cc1cnc(CN2CCCC(c3ccc4cn[nH]c4n3)C2)cn1 (stereo unspecified) | > 50 µM (inactive) |
| CCn1cnc2ccc(C(=O)NC3CC3)cc2c1=O | > 50 µM (inactive) |
| O=C(Cn1cc(C(=O)C2CC2)c2ccccc21)NCc1ccc2c(c1)OCO2 | 31.2 µM |
| N#C/C(=C\c1ccc(-c2cc(Cl)ccc2Cl)o1)c1nnc2n1CCCCC2 | > 50 µM (inactive) |
| Cc1ccc(C)c(Cn2nnc3c(=O)[nH]c(C4CCN(S(=O)(=O)c5ccc(S(=O)(=O)NC6CC6)cc5)CC4)nc32)c1 | 35.1 µM |
| COc1cc2c(=O)n(CCC(=O)NCc3ccco3)c(=O)n(CC(=O)Nc3c(C)cccc3C)c2cc1OC | > 50 µM (inactive) |
| COc1ccc2nc(Nc3nc(-c4cnc(N5CCOCC5)nc4C)cc(=O)[nH]3)nc(C)c2c1 | > 50 µM (inactive) |
| C/C=C1/C2=CCCN3C(=O)O[C@H]([C@H]1O)[C@H]23 | > 50 µM (inactive) |
| COC(=O)CC1CC23OC2(C(=O)c2c(O)cccc2C3=O)C(C)O1 (stereo unspecified) | > 50 µM (inactive) |
| CCNc1oc(-c2ccc(S(=O)(=O)N3CCCCC3)cc2)nc1C#N | > 50 µM (inactive) |
| Cc1ccccc1Cn1ccc(NC(=O)c2noc(C)c2[N+](=O)[O-])n1 | > 50 µM (inactive) |
| COc1ccc(NC(=O)Cn2cc(C(=O)c3ccc(F)cc3)c(=O)c3cc(C)ccc32)cc1 | 23.2 µM |
| Cc1ccccc1NC(=O)Cn1cc(-c2nc(C3CC3)no2)ccc1=O | > 50 µM (inactive) |

| Structure (SMILES) | IC50 |
| --- | --- |
| Cc1ccc(NC(=O)c2ccc(N3CCOCC3)nn2)cc1F | > 50 µM (inactive) |
| N#Cc1ccccc1OCc1csc(-c2ccccc2)n1 | > 50 µM (inactive) |
| CCC(=O)Nc1nc2cc(NC(=O)Nc3cc(C)cc(C)c3)ccc2s1 | 7.84 µM |
| Cc1ccc2nnc(-c3ccccc3)c(C(=O)N3CCN(c4ccccn4)CC3)c2c1 | > 50 µM (inactive) |
| CC(=O)c1cccc(NC(=O)c2ccc(CN(c3ccc(C)c(C)c3)S(C)(=O)=O)cc2)c1 | > 50 µM (inactive) |
| CCOc1ccccc1NC(=O)Cn1ccn2nc(-c3ccc(OC)cc3)cc2c1=O | > 50 µM (inactive) |
| Cn1nc(-c2ccccc2)c(COC(=O)c2ccc([N+](=O)[O-])cc2)c1Cl | > 50 µM (inactive) |
| COC(=O)c1ccc2c(=O)n(CCCCCC(=O)NCc3cccc(Cl)c3)c(=O)[nH]c2c1 | 3.22 µM |
| CN1C(=O)[C@]23CC4=CC=C[C@H](O)[C@H]4N2C(=O)[C@@]1(CO)SS3 | > 50 µM (inactive) |
| O=C(Cc1noc2ccccc12)N1CCN(c2ccc([N+](=O)[O-])cc2)CC1 | > 50 µM (inactive) |
| NC(=O)CCC(=O)N[C@H]1C[C@H]2CN(Cc3ccccc3)c3ccccc3CN2C1 | > 50 µM (inactive) |
| Cc1ccc2c(c1)N(Cc1nc(-c3ccc(F)cc3)no1)C(=O)CO2 | > 50 µM (inactive) |
| CCOC(=O)c1ccc(NC(=O)COc2cccc3c2CCN(CC)C3=O)cc1 | > 50 µM (inactive) |
| CCC(CC)n1[nH]c(=O)c2c1NC(=O)CSC2c1ccc2c(c1)OCO2 (stereo unspecified) | 19.3 µM |
| COc1ccccc1NC(=O)CNC(=O)c1nn(-c2ccc(OC)c(OC)c2)c(=O)c2ccccc12 | 38.8 µM |
| Cc1nn(CC(=O)NCc2ccccc2F)c2ccccc12 | > 50 µM (inactive) |
| Cc1ccc(C)c(S(=O)(=O)N2CCN(c3ccc4nnc(-c5ccco5)n4n3)CC2)c1 | > 50 µM (inactive) |
| Cc1cccc(-n2ccnc(SCC(=O)Nc3ccc(Cl)cc3F)c2=O)c1 | 27.7 µM |
| COc1ccc(C(=O)Nc2cc3c4c(c2)C(C)C(=O)N4CCC3)cc1 (stereo unspecified) | > 50 µM (inactive) |
| CCCc1nc2sc3c(NCCc4ccc(OC)c(OC)c4)ncnc3c2c2c1CCC2 | > 50 µM (inactive) |
| O=C(NCc1ccc2c(c1)OCO2)c1nn(C23CC4CC(CC(C4)C2)C3)cc1[N+](=O)[O-] | > 50 µM (inactive) |
| CCCn1c(=O)c(-c2ccc(C(=O)NCc3ccc(OC)cc3)cc2)nc2cccnc21 | 6.42 µM |
| CSc1cccc(C(=O)Nc2ccc(-c3nc4ccccc4[nH]3)cc2)c1 | 21.7 µM |
| O=C(Nc1ccc2c(c1)OCCO2)c1cc(CN2CCOCC2)on1 | > 50 µM (inactive) |

| Structure (SMILES) | IC50 |
| --- | --- |
| COc1cccc(NC(=O)Cn2c(COc3ccccc3)nc3ccccc32)c1 | > 50 µM (inactive) |
| CCOC(=O)Nc1ccc(N2CCn3c(nc4ccccc43)C2)cc1OC | > 50 µM (inactive) |
| N=C1C(c2nc3ccccc3s2)=C(O)CN1Cc1ccc(F)cc1 | > 50 µM (inactive) |
| COc1ccc(-n2c(SCC(=O)c3ccc(F)cc3)nnc2-c2cccnc2)cc1 | 26.8 µM |
| Cc1cccc(O)c1-c1nc2c(-c3nc4c(C(=O)O)cccc4o3)cccc2o1 | > 50 µM (inactive) |
| O=C(Cn1c(=O)n(Cc2ccccc2)c(=O)c2ncccc21)NCc1ccccc1Cl | > 50 µM (inactive) |
| CN(C)C(=O)CSc1nnc(-c2cccc(Cl)c2)n1-c1ccc(Cl)c(C(F)(F)F)c1 | > 50 µM (inactive) |
| COc1cccc2c1OCC(NS(=O)(=O)c1cc(C)ccc1C)C2 (stereo unspecified) | > 50 µM (inactive) |
| O=C(Cn1cncc(-c2nc(-c3ccccc3)cs2)c1=O)NC1CCCC1 | > 50 µM (inactive) |
| COc1c(C)c(C(O)C(C)O)c2[nH]c3ccc(CC=C(C)C)cc3c2c1O (stereo unspecified) | 25.6 µM |
| COc1ccc2c(c1)c(N1CCCC1=O)c(C(=O)NCc1cccc(OC)c1OC)n2C | > 50 µM (inactive) |
| COc1ccc(-c2cc3nc([C@H](C)NC(=O)Cc4ccccc4C)nn3cn2)cc1 | 6.66 µM |
| CC1OC(CC(=O)O)CC23OC12C(=O)c1c(O)cccc1C3=O (stereo unspecified) | > 50 µM (inactive) |
| CCCc1nc2sc3c(NC4CCCCC4)ncnc3c2c2c1CCC2 | > 50 µM (inactive) |
| O=S1(=O)CCN(Cc2ccccc2)c2c(F)nc(N3CCCCC3)c(F)c21 | > 50 µM (inactive) |
| O=c1c2ccccc2oc2nc(-c3cccs3)n(-c3ccccc3)c(=O)c12 | 3.6 µM |
| CC(=O)Nc1ccc(S(=O)(=O)NCc2ccc(C(=O)NCc3ccc(C)cc3)cc2)cc1 | 25.2 µM |
| Cc1ccc2cc(CCNC(=O)c3cccc(Br)c3)c(=O)[nH]c2c1 | > 50 µM (inactive) |
| CN1C(=O)COc2ccc(NC(=O)c3cc(-c4ccccc4)on3)cc21 | > 50 µM (inactive) |
| Cn1c2ccccc2c(=O)c2c(=O)n(Cc3ccccc3)c(-c3ccccc3F)nc21 | 0.33 µM |
| Cc1ccc2nc(CNC(=O)c3ccccc3-c3nc(-c4ccc(F)cc4)no3)[nH]c2c1 | 39.9 µM |
| O=C(CC(C(=O)Nc1ccc2c(c1)OCO2)C(=O)c1ccccc1)Nc1ccc(Cl)cc1F (stereo unspecified) | 15.4 µM |
| CCn1c(SCC(=O)N2c3ccccc3CC2C)nnc1-c1ccc2c(c1)OCCO2 (stereo unspecified) | > 50 µM (inactive) |
| Cc1ccc(-c2nnc(-n3ncc(C#N)c3N)c3ccccc23)cc1C | > 50 µM (inactive) |
